What all share (assay type): functional
Assay [1] relates to Staphylococcus epidermidis. As to the kind of experiment: Ratio of telithromycin MIC to compound MIC for methicillin-resistant, coagulase-negative, MLS-resistant (inducible) Staphylococcus epidermidis E3 by broth microdilution method.
The test system of assay [2] is Staphylococcus aureus. As to the kind of experiment: Ratio of telithromycin MIC to compound MIC for methicillin-resistant, […], MLS-resistant (constitutive) Staphylococcus aureus PU 19 by broth microdilution method.
Assay [3] has as its system Streptococcus pyogenes. As to the kind of experiment: Ratio of telithromycin MIC to compound MIC for MLS-resistant (constitutive) Streptococcus pyogenes A2 by broth microdilution method.
In assay [4] the test system is Streptococcus dysgalactiae. As to the kind of experiment: Ratio of telithromycin MIC to compound MIC for erythromycin-resistant Streptococcus dysgalactiae A1 by broth microdilution method.
Assay [5] concerns Staphylococcus epidermidis. As to the kind of experiment: Antibacterial activity against methicillin-resistant, coagulase-negative, MLS-resistant (inducible) Staphylococcus epidermidis E3 by broth microdilution method.
Assay [6] relates to Staphylococcus epidermidis. As to the kind of experiment: Antibacterial activity against methicillin-resistant, MLS-resistant (constitutive) Staphylococcus epidermidis E2 by broth microdilution method.
In assay [7] the test system is Staphylococcus epidermidis. As to the kind of experiment: Antibacterial activity against methicillin-susceptible, MLS-resistant (inducible) Staphylococcus epidermidis E1 by broth microdilution method.
Assay [8] concerns Staphylococcus aureus. As to the kind of experiment: Antibacterial activity against methicillin-resistant, […], MLS-resistant (constitutive) Staphylococcus aureus PU 19 by broth microdilution method.
The subject of assay [9] is Staphylococcus aureus. As to the kind of experiment: Antibacterial activity against methicillin-resistant, MLS-resistant (inducible) Staphylococcus aureus PU 32 by broth microdilution method.
The test system of assay [10] is Staphylococcus aureus. As to the kind of experiment: Antibacterial activity against erythromycin-susceptible Staphylococcus aureus ATCC 29213 by broth microdilution method.
Assay [11] concerns Streptococcus pyogenes. As to the kind of experiment: Antibacterial activity against erythromycin-susceptible Streptococcus pyogenes A3 by broth microdilution method.
Assay [12] has as its system Streptococcus pyogenes. As to the kind of experiment: Antibacterial activity against MLS-resistant (constitutive) Streptococcus pyogenes A2 by broth microdilution method.
Assay [13] deals with Streptococcus dysgalactiae. As to the kind of experiment: Antibacterial activity against erythromycin-resistant Streptococcus dysgalactiae A1 by broth microdilution method.
For assay [14], the system named is Streptococcus pneumoniae. As to the kind of experiment: Antibacterial activity against MLS-resistant (constitutive), penicillin-resistant Streptococcus pneumoniae PU11 by broth microdilution method.
Assay [15] relates to Streptococcus pneumoniae. As to the kind of experiment: Antibacterial activity against penicillin-susceptible Streptococcus pneumoniae PU09 harboring mef gene by broth microdilution method.
In assay [16] the test system is Streptococcus pneumoniae. As to the kind of experiment: Antibacterial activity against erythromycin-susceptible Streptococcus pneumoniae ATCC 49619 by broth microdilution method.

Each structure is given as a SMILES string. Values after ≈ are worked out from the molar mass of the structure shown.

On to `CC[C@H]1OC(=O)[C@H](C)C(=O)[C@H](C)[C@@H](O[C@@H]2O[C@H](C)C[C@H](N(C)C)[C@H]2O)[C@](C)(OC)C[C@@H](C)/C(=N\OC/C=C/c2cnc3ccccc3c2)[C@H](C)[C@H]2OC(=O)O[C@@]21C`, for which the Ratio (in [1]; in the assay with Staphylococcus aureus [2]; in the assay with Streptococcus pyogenes [3]; in [4]) was 4 each time. In addition, the MIC was 2 µg/mL (≈ 2.51 µM) in assay [5]; 128 µg/mL (≈ 161 µM) in [6]; 8 µg/mL (≈ 10.1 µM) in assay [7]; 64 µg/mL (≈ 80.4 µM) against Staphylococcus aureus [8]; 1 µg/mL (≈ 1.26 µM) in the assay with Staphylococcus aureus [9]; 0.5 µg/mL (≈ 0.628 µM) against Staphylococcus aureus [10]. In addition, the MIC with Streptococcus pyogenes [11] was found to be 0.032 µg/mL (≈ 0.0402 µM); with Streptococcus pyogenes [12], 32 µg/mL (≈ 40.2 µM); in assay [13] it was 0.5 µg/mL (≈ 0.628 µM); against Streptococcus pneumoniae [14] it was 64 µg/mL (≈ 80.4 µM); in the assay with Streptococcus pneumoniae [15], 1 µg/mL (≈ 1.26 µM); in the assay with Streptococcus pneumoniae [16], 0.125 µg/mL (≈ 0.157 µM).
